Measurements as given in patent US12606591B2, “Process for the preparation of drospirenone as a fine powder through a double change of crystalline form” (INDUSTRIALE CHIMICA S.R.L., priority 2021, dated 2026).

Test: Powder particle size by Helos laser particle size analyzer with Quixel disperser
Format: physicochemical
Description: The powders particle size was measured using a Helos laser particle size analyzer equipped with a Quixel disperser (instrument and disperser manufactured and sold by the company Sympatec GmbH of Clausthal-Zellerfeld, Germany), using ultrapure milli-Q water as the dispersing medium. The sample was first dispersed in milli-Q water by adding a few drops of Tween® 80 (polyethylene glycol sorbitan monooleate, sold by Merck) and placed in a sonicating bath for 5 min, then the suspension was added to the dispersing medium loaded into the instrument until an optical density value OD=4-15% is obtained. The measurement (30 s background +30 s measurement) was performed by operating under continuous sonication with the recirculation pump set at 20%.

SMILES: C[C@]12CCC(=O)C=C1[C@@H]1C[C@@H]1[C@H]1[C@@H]3[C@@H]4C[C@@H]4[C@@]4(CCC(=O)O4)[C@@]3(C)CC[C@@H]12 [Drospirenone, 17β-hydroxy-6β, 7β; 15, 16β-dimethylene-3-oxo-17α-pregn-4-ene-21-carboxylic acid γ-lactone]
- size of all particles (Crystalline Form I powder of Example 3 (process of the invention), FIG. 9, cumulative curve): lower than 110 μm
- size of the largest particles present (Crystalline Form I powder of Example 4 (comparative), FIG. 10): over 150 μm
- peak of the sample particles size distribution (Crystalline Form I powder of Example 4 (comparative, no transformation to Form II), FIG. 10): about 70 μm
